# Values quoted from earlier work in PMC13109691 (Environmental and Molecular Mutagenesis, 2026).
# Details: source not stated
smiles,measurement,value
COc1ccc(C(=O)c2ccccc2)c(O)c1 [Oxybenzone],Lipophilicity (logP),3.79
